# pIC50: −log10 of the molar value.
# System: PDC KRAS tumor spheroids with HUVEC/MSC, viability
# Experiment: Anticancer human tumor 349418-098-R-PDC patient-derived lung adenocarcinoma cell line growth inhibition [KRAS2]
# Settings: for pIC50: curve of first compound; for viability, T/C: stronger effect = lower value
# Description: Multicellular complex tumor spheroid response to RAS pathway inhibitors in combination with a targeted agents in patient-derived cell lines with oncogenic KRAS variants from multiple cancer types
# A high-throughput screen of multi-cell type tumor spheroids was designed to identify active combinations of targeted small molecules and KRAS pathway inhibitors. Complex spheroids include a stromal component modeled by human endothelial cells (HUVEC) and fibroblasts modeled by human mesenchymal stem cells (MSCs). The concentration ranges selected for each drug and investigational agent were based upon clinically achievable concentrations if the clinical Cmax of the agent was known.
# Compounds. The drugs and investigational agents: BI-3406 (NSC825286), BAY-293 (NSC824723), batoprotafib (TNO155; NSC825523), sotorasib (AMG 510; NSC818433), MRTX1257 (NSC819558), elimusertib (BAY 1895344; NSC800525), molibresib (GSK525762; NSC774829), temuterkib (LY3214996; NSC803410), venetoclax (NSC766270), alisertib (NSC759677), olaparib (NSC753686), talazoparib (NSC767125), erdafitinib (NSC781556), ipatasertib (NSC767898), cabozantinib (NSC761068), nintedanib (NSC756659), abemaciclib (NSC768073), docetaxel (NSC628503), trametinib (NSC758246), and sapanisertib (NSC764658) were obtained from the National Cancer Institute (NCI) Developmental Therapeutics Program Chemical Repository. The FDA-approved anticancer drug set is available from the Developmental Therapeutics Program. […] The stock solutions were prepared in dimethyl sulfoxide (DMSO, Sigma-Aldrich, St. Louis, MO, cat. D2650) at 800-fold the tested concentration and stored at -70 degrees C prior to their use. All drugs and investigational agents were tested over a range starting from a high concentration at or near the clinical Cmax and decreasing in half-log increments. If the clinical Cmax for an agent had not been determined, the highest concentration tested was 10 microM.
# Cell Culture. All cells were maintained in an incubator at 37 degrees C and 5% CO2 with 95% humidity. The PDC lines were cultured according to standard operating procedures established by the NCI PDMR (https://pdmr.cancer.gov/sops/default.htm). Briefly, all PDCs were thawed and cultured in Matrigel-coated flasks prepared with a working solution of 1X Ham's F-12 nutrient mix, without supplementation (Invitrogen, Waltham, MA, cat. 11765054), 100 U/mL penicillin-streptomycin (Invitrogen, cat. 15140122), and 2.5% Matrigel (Corning Inc., Corning, NY, cat. 354248) for the first three passages. All PDCs were cultured in complete DMEM/F-12 media containing advanced DMEM/F-12 (Invitrogen, cat. 12634028), 4.9% defined fetal bovine serum, heat inactivated (HyClone Laboratories Inc., Logan, UT, cat. SH30070.03HI), 389 ng/mL hydrocortisone (Sigma-Aldrich, cat. H4001), 9.7 ng/mL human EGF recombinant protein (Invitrogen, cat. PHG0313), 23.4 microg/mL adenine (Sigma-Aldrich, cat. A2786), 97.3 U/mL penicillin-streptomycin (Invitrogen, cat. 15140122), 1.9 mM L-glutamine (Invitrogen, cat. 25030081), and 9.7 microM Y-27632 dihydrochloride (Tocris Bioscience, Bristol, United Kingdom, cat. 1254). The PDCs were cultured in complete DMEM/F12 media without 9.7 microM Y-27632 dihydrochloride for at least two passages prior to the screen. The established cell line HOP-62 was cultured in RPMI 1640 medium, HEPES (Invitrogen, cat. 22400105) with 10% defined fetal bovine serum (HyClone Laboratories Inc., cat. SH30070.03) and 2 mM L-glutamine (Invitrogen, cat. 25030081). The pooled donor HUVEC were cultured in endothelial cell growth medium 2 (PromoCell, Heidelberg, Germany, cat. C-22011) and the hMSC were cultured in mesenchymal stem cell growth medium 2 (PromoCell, cat. C-28009). For all experiments, HUVEC and hMSC were used at passages </=5, while the malignant cell lines were used at passages </=15. […]
# [1] = second compound 0.1 µM, first compound 0.0316 µM
# [2] = second compound 0.1 µM, first compound 0.1 µM
# [3] = second compound 0.1 µM, first compound 0.316 µM
# [4] = second compound 0.1 µM, first compound 1 µM
# [5] = second compound 0.316 µM, first compound 0.0316 µM
# [6] = second compound 0.316 µM, first compound 0.1 µM
# [7] = second compound 0.316 µM, first compound 0.316 µM
# [8] = second compound 0.316 µM, first compound 1 µM
# [9] = second compound 1 µM, first compound 0.0316 µM
# [10] = second compound 1 µM, first compound 0.1 µM
# [11] = second compound 1 µM, first compound 0.316 µM
# [12] = second compound 1 µM, first compound 1 µM
# [13] = second compound 3.16 µM, first compound 0.0316 µM
# [14] = second compound 3.16 µM, first compound 0.1 µM
# [15] = second compound 3.16 µM, first compound 0.316 µM
# [16] = second compound 3.16 µM, first compound 1 µM
# [17] = second compound 0.1 µM, first compound 3.16 µM
# [18] = second compound 0.1 µM, first compound 10 µM
# [19] = second compound 0.316 µM, first compound 3.16 µM
# [20] = second compound 0.316 µM, first compound 10 µM
# [21] = second compound 1 µM, first compound 3.16 µM
# [22] = second compound 1 µM, first compound 10 µM
# [23] = second compound 3.16 µM, first compound 3.16 µM
# [24] = second compound 3.16 µM, first compound 10 µM
# [25] = second compound 10 µM, first compound 0.0316 µM
# [26] = second compound 10 µM, first compound 0.1 µM
# [27] = second compound 10 µM, first compound 0.316 µM
# [28] = second compound 10 µM, first compound 1 µM
# [29] = second compound 10 µM, first compound 3.16 µM
# [30] = second compound 10 µM, first compound 10 µM
# 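Note: spheroids exposed to compounds for seven days before readout.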
structure (smiles),measurement,setting,value
CCN1CCN(Cc2ccc(Nc3ncc(F)c(-c4cc(F)c5nc(C)n(C(C)C)c5c4)n3)nc2)CC1 + C=CC(=O)N1CCN(c2nc(OCC3CCCN3C)nc3c2CCN(c2cccc4cccc(C)c24)C3)CC1CC#N,pIC50,second compound 0.0316 µM,8.35
same,pIC50,second compound 0.1 µM,8.17
same,pIC50,second compound 0.316 µM,8.22
same,pIC50,second compound 1 µM,> 8.50
same,pIC50,second compound 3.16 µM,> 8.50
same,"viability, T/C","second compound 0.0316 µM, first compound 0.00316 µM",56%
same,"viability, T/C","second compound 0.0316 µM, first compound 0.01 µM",37.7%
same,"viability, T/C","second compound 0.0316 µM, first compound 0.0316 µM",19.3%
same,"viability, T/C","second compound 0.0316 µM, first compound 0.1 µM",16.6%
same,"viability, T/C","second compound 0.0316 µM, first compound 0.316 µM",14.1%
same,"viability, T/C","second compound 0.0316 µM, first compound 1 µM",4.49%
same,"viability, T/C","second compound 0.1 µM, first compound 0.00316 µM",80.7%
same,"viability, T/C","second compound 0.1 µM, first compound 0.01 µM",31.3%
same,"viability, T/C",[1],20.2%
same,"viability, T/C",[2],15.4%
same,"viability, T/C",[3],10.2%
same,"viability, T/C",[4],3.97%
same,"viability, T/C","second compound 0.316 µM, first compound 0.00316 µM",64.8%
same,"viability, T/C","second compound 0.316 µM, first compound 0.01 µM",40.2%
same,"viability, T/C",[5],15.8%
same,"viability, T/C",[6],19.1%
same,"viability, T/C",[7],10.4%
same,"viability, T/C",[8],2.4%
same,"viability, T/C","second compound 1 µM, first compound 0.00316 µM",46.1%
same,"viability, T/C","second compound 1 µM, first compound 0.01 µM",24.9%
same,"viability, T/C",[9],15.2%
same,"viability, T/C",[10],12.4%
same,"viability, T/C",[11],8.99%
same,"viability, T/C",[12],0.45%
same,"viability, T/C","second compound 3.16 µM, first compound 0.00316 µM",0.15%
same,"viability, T/C","second compound 3.16 µM, first compound 0.01 µM",0.09%
same,"viability, T/C",[13],0.07%
same,"viability, T/C",[14],0.08%
same,"viability, T/C",[15],0.08%
same,"viability, T/C",[16],0.19%
COC(=O)c1ccc2c(C(=Nc3ccc(N(C)C(=O)CN4CCN(C)CC4)cc3)c3ccccc3)c(O)[nH]c2c1 + COc1cc2nc(C)nc(NC(C)c3cc(N)cc(C(F)(F)F)c3)c2cc1OC1CCOC1,pIC50,second compound 0.1 µM,5.79
same,pIC50,second compound 0.316 µM,5.98
same,pIC50,second compound 1 µM,5.86
same,pIC50,second compound 3.16 µM,6.23
same,pIC50,second compound 10 µM,> 7.50
same,"viability, T/C",[1],113%
same,"viability, T/C",[2],97.2%
same,"viability, T/C",[3],76.1%
same,"viability, T/C",[4],78.8%
same,"viability, T/C",[17],8.68%
same,"viability, T/C",[18],15.6%
same,"viability, T/C",[5],91.2%
same,"viability, T/C",[6],121%
same,"viability, T/C",[7],83%
same,"viability, T/C",[8],56.8%
same,"viability, T/C",[19],7.24%
same,"viability, T/C",[20],13.5%
same,"viability, T/C",[9],88.9%
same,"viability, T/C",[10],103%
same,"viability, T/C",[11],90.5%
same,"viability, T/C",[12],64.7%
same,"viability, T/C",[21],9.57%
same,"viability, T/C",[22],11.1%
same,"viability, T/C",[13],66.5%
same,"viability, T/C",[14],92.8%
same,"viability, T/C",[15],78.2%
same,"viability, T/C",[16],25.8%
same,"viability, T/C",[23],5.92%
same,"viability, T/C",[24],0.55%
same,"viability, T/C",[25],41.8%
same,"viability, T/C",[26],28%
same,"viability, T/C",[27],36.7%
same,"viability, T/C",[28],11.3%
same,"viability, T/C",[29],1.15%
same,"viability, T/C",[30],0.2%
CC1(C)CCC(CN2CCN(c3ccc(C(=O)NS(=O)(=O)c4ccc(NCC5CCOCC5)c([N+](=O)[O-])c4)c(Oc4cnc5[nH]ccc5c4)c3)CC2)=C(c2ccc(Cl)cc2)C1 + CC1OCC2(CCN(c3cnc(Sc4ccnc(N)c4Cl)c(N)n3)CC2)C1N,pIC50,second compound 0.1 µM,5.74
same,pIC50,second compound 0.316 µM,5.76
same,pIC50,second compound 1 µM,5.75
same,pIC50,second compound 3.16 µM,5.80
same,pIC50,second compound 10 µM,5.90
same,"viability, T/C",[1],105%
same,"viability, T/C",[2],97.1%
same,"viability, T/C",[3],91.4%
same,"viability, T/C",[4],89.1%
same,"viability, T/C",[17],12.3%
same,"viability, T/C",[18],3.59%
same,"viability, T/C",[5],95.4%
same,"viability, T/C",[6],94.4%
same,"viability, T/C",[7],89.6%
same,"viability, T/C",[8],84.5%
same,"viability, T/C",[19],12.2%
same,"viability, T/C",[20],3.15%
same,"viability, T/C",[9],94.9%
same,"viability, T/C",[10],97.9%
same,"viability, T/C",[11],88.2%
same,"viability, T/C",[12],87.1%
same,"viability, T/C",[21],13.3%
same,"viability, T/C",[22],3.05%
same,"viability, T/C",[13],87.4%
same,"viability, T/C",[14],85.5%
same,"viability, T/C",[15],77.9%
same,"viability, T/C",[16],71.8%
same,"viability, T/C",[23],17.7%
same,"viability, T/C",[24],2%
same,"viability, T/C",[25],76%
same,"viability, T/C",[26],82.1%
same,"viability, T/C",[27],63.2%
same,"viability, T/C",[28],60.8%
same,"viability, T/C",[29],15.6%
same,"viability, T/C",[30],0.69%
